Laboratory results: patent publication US10052289B2, “Composition comprising an active agent with low aqueous solubility” (Flamel Ireland Limited, priority 2008, dated 2018)
Values after ≈ are worked out from the molar mass of the structure shown. Values joined by “and” are separate entries in the source; they are usually repeats but may differ in a detail not shown here. Equal values may be shown once. Read-outs that look alike come from different tables or passages of the source.

Legend:
physchem [1] = conditions: concentrated aqueous POM polymer solution, pH 7, aqueous with cosolvent or surfactant or cyclodextrin, thermodynamic from solid, Total concentration of solubilized active ingredient, ambient temperature
physchem [2] = conditions: pH 7, aqueous buffer, thermodynamic from solid, solubility in the absence of polymer
Procedure: 40 to 50 mg of carvedilol base are introduced into a 15 ml Falcon tube. 5 ml of aqueous solution of concentrated POM polymer at 20 mg/ml and at pH 7.0 are added. […] After this stage, the preparation is centrifuged at 9,000 rpm for 30 minutes in order to eliminate any undissolved crystals. […] It is diluted 1,000 times with a phosphate buffer at pH 7.0. The concentration of solubilized carvedilol is determined by UV spectrometry (at a wavelength of 240 nm and using a cell with a 1 cm optical path).

[3] = pH 7.0, ambient temperature
[4] = remark: listed apart in the source
Procedure: The preparation is centrifuged at 9,000 rpm for 30 minutes.

[5] = Solubilization of ketoconazole in concentrated POM polymer solution (visual check); type: physicochemical; conditions: for solubility: pH 7, aqueous with cosolvent or surfactant or cyclodextrin, thermodynamic from solid
physchem [6] = conditions: thermodynamic from solid
[7] = Solubilization of paclitaxel in concentrated aqueous POM polymer solution (visual check); type: physicochemical; conditions: for solubility: concentrated aqueous POM polymer solution
Procedure: 21.21 mg of paclitaxel (Bioxel) are introduced into a pill-box.
39.68 mg of paclitaxel (Bioxel) are introduced into a pill-box.
35.05 mg of paclitaxel (Bioxel) are introduced into a pill-box.

physchem [8] = conditions: for solubility at […]: 37 °C, pH 7, aqueous buffer, thermodynamic from solid
Procedure: 0.49 mg of paclitaxel (Bioxel) is introduced into a 2 liter volumetric flask. The flask is topped up to the fill line with a 0.05 M phosphate buffer at pH 7.0. The preparation is stirred using a magnetic bar, at 37° C.
The preparation is then placed in an ultrasonic bath for 60 min at ambient temperature.

[9] = Solubilization of paclitaxel in aqueous POM polymer solution at 20 mg/ml (visual check); type: physicochemical; conditions: for Solubilized active ingredient in μmol per g of polymer / Total concentration of active ingredient solibilized for 20 g/l of polymer: 20 g/l, pH 7.0, ambient temperature
Procedure: 4.99 mg of paclitaxel (Bioxel) are introduced into a pill-box.
10.33 mg of paclitaxel (Bioxel) are introduced into a pill-box.
7 mg of paclitaxel (Bioxel) are introduced into a pill-box.

[10] = background statement; cited from earlier work
[11] = sodium polyglutamate DP=100, 10% VE, 52.8 mg/ml
[12] = sodium polyglutamate DP=100, 15% VE, 84.6 mg/ml
[13] = sodium polyglutamate DP=100, 20% VE, 156 mg/ml
[14] = sodium polyglutamate DP=100, 10% VE, 52.8 mg/ml, pH 7.0, ambient temperature
[15] = sodium polyglutamate DP=100, 15% VE, 84.6 mg/ml, pH 7.0, ambient temperature
[16] = sodium polyglutamate DP=100, 20% VE, 156 mg/ml, pH 7.0, ambient temperature
[17] = sodium polyglutamate DP=100, 30% VE, 53.5 mg/ml, pH 7.0, ambient temperature
[18] = sodium polyglutamate DP=100, 5% VE
[19] = sodium polyglutamate DP=100, 10% VE
[20] = sodium polyglutamate DP=100, 15% VE
[21] = sodium polyglutamate DP=100, 20% VE

COc1ccccc1OCCNCC(O)COc1cccc2[nH]c3ccccc3c12 (centres unmarked) [carvedilol base, carvedilol]
Solubilized active ingredient in μmol per g of polymer (pH 7): 28 μmol per g of polymer | Total concentration of solubilized active ingredient for 20 g/l of polymer (pH 7): 0.000565 mol/L | solubility (physchem [1]; [11]): 33.7 mM (≈ 13700 µg/mL) | solubility (physchem [1]; [12]): 40.1 mM (≈ 16300 µg/mL) | solubility (physchem [1]; [13]): 84.6 mM (≈ 34400 µg/mL) | solubility at 90 min (physchem [2]): 0.12 mM (≈ 48.8 µg/mL) | Solubilized active ingredient in μmol per g of polymer [3, 11]: 638 μmol per g of polymer | Solubilized active ingredient in μmol per g of polymer [3, 12]: 474 μmol per g of polymer | Solubilized active ingredient in μmol per g of polymer [3, 13]: 543 μmol per g of polymer

CC(=O)N1CCN(c2ccc(OCC3COC(Cn4ccnc4)(c4ccc(Cl)cc4Cl)O3)cc2)CC1 (centres unmarked) [ketoconazole]
factor of increase of solubility [4]: approximately 200 | solubility ([5]; concentrated aqueous POM polymer solution, concentrated polymers DP=100 containing between 15% and 20% vitamin E, read-out: concentrations of solubilized active ingredient): > 30 mM | solubility ([5]; concentrated aqueous POM polymer solution, sodium polyglutamate DP=100, 15% VE, 84.6 mg/ml, pH 7.0, ambient temperature, read-out: Total concentration of solubilized active ingredient): 31.1 mM (≈ 16500 µg/mL) | solubility ([5]; sodium polyglutamate DP=100, 10% VE, 52.8 mg/ml, pH 7.0, ambient temperature, read-out: Total concentration of solubilized active ingredient): 16 mM (≈ 8500 µg/mL) | solubility ([5]; sodium polyglutamate DP=100, 20% VE, 156 mg/ml, pH 7.0, ambient temperature, read-out: Total concentration of solubilized active ingredient): 53.5 mM (≈ 28400 µg/mL) | solubility ([5]; sodium polyglutamate DP=100, 30% VE, 53.5 mg/ml, pH 7.0, ambient temperature, read-out: Total concentration of solubilized active ingredient): 14.1 mM (≈ 7490 µg/mL) | Solubilized active ingredient in μmol per g of polymer [5, 14]: 303 μmol per g of polymer | Solubilized active ingredient in μmol per g of polymer [5, 15]: 367 μmol per g of polymer | Solubilized active ingredient in μmol per g of polymer [5, 16]: 343 μmol per g of polymer | Solubilized active ingredient in μmol per g of polymer [5, 17]: 264 μmol per g of polymer | Solubilized active ingredient in μmol per g of polymer (sodium polyglutamate DP=100, 2% VE, 20 g/l, pH 7.0, ambient temperature): 28 μmol per g of polymer | Solubilized active ingredient in μmol per g of polymer (sodium polyglutamate DP=100, 5% VE, 20 g/l, pH 7.0, ambient temperature): 127 μmol per g of polymer | Solubilized active ingredient in μmol per g of polymer (sodium polyglutamate DP=100, 10% VE, 20 g/l, pH 7.0, ambient temperature): 358 μmol per g of polymer | Solubilized active ingredient in μmol per g of polymer (sodium polyglutamate DP=100, 15% VE, 20 g/l, pH 7.0, ambient temperature): 358 μmol per g of polymer | Solubilized active ingredient in μmol per g of polymer (sodium polyglutamate DP=100, 20% VE, 20 g/l, pH 7.0, ambient temperature): 348 μmol per g of polymer | solubility (physchem [6]; aqueous POM polymer solution, pH 7, aqueous with cosolvent or surfactant or cyclodextrin, Total concentration of solubilized active ingredient for 20 g/l of polymer, sodium polyglutamate DP=100, 2% VE, 20 g/l, pH 7.0, ambient temperature): 0.565 mM (≈ 300 µg/mL) | solubility (physchem [6]; aqueous POM polymer solution, pH 7, aqueous with cosolvent or surfactant or cyclodextrin, Total concentration of solubilized active ingredient for 20 g/l of polymer, sodium polyglutamate DP=100, 5% VE, 20 g/l, pH 7.0, ambient temperature): 2.54 mM (≈ 1350 µg/mL) | solubility (physchem [6]; aqueous POM polymer solution, pH 7, aqueous with cosolvent or surfactant or cyclodextrin, Total concentration of solubilized active ingredient for 20 g/l of polymer, sodium polyglutamate DP=100, 10% VE, 20 g/l, pH 7.0, ambient temperature): 7.16 mM (≈ 3810 µg/mL) | solubility (physchem [6]; aqueous POM polymer solution, pH 7, aqueous with cosolvent or surfactant or cyclodextrin, Total concentration of solubilized active ingredient for 20 g/l of polymer, sodium polyglutamate DP=100, 15% VE, 20 g/l, pH 7.0, ambient temperature): 7.16 mM (≈ 3810 µg/mL) | solubility (physchem [6]; aqueous POM polymer solution, pH 7, aqueous with cosolvent or surfactant or cyclodextrin, Total concentration of solubilized active ingredient for 20 g/l of polymer, sodium polyglutamate DP=100, 20% VE, 20 g/l, pH 7.0, ambient temperature): 6.97 mM (≈ 3700 µg/mL) | solubility (physchem [6]; aqueous medium without polymer, pH 7, aqueous buffer, solubility in the absence of polymer, pH 7.0, absence of polymer): ~0.02 mM (≈ 10.6 µg/mL)

CC(=O)O[C@H]1C(=O)[C@@]2(C)[C@H]([C@H](OC(=O)c3ccccc3)[C@]3(O)C[C@H](OC(=O)[C@H](O)[C@@H](NC(=O)c4ccccc4)c4ccccc4)C(C)=C1C3(C)C)[C@]1(OC(C)=O)CO[C@@H]1C[C@@H]2O [paclitaxel]
μmol of paclitaxel per gram of POM polymer ([7]; 90 mg/ml polyglutamate 20% VE): 49 μmol per gram of POM polymer | solubility at 5 h ([7]; aqueous polyglutamate (POM) polymer solution, pH 7, aqueous with cosolvent or surfactant or cyclodextrin, thermodynamic from solid, 90 mg/ml polyglutamate 20% VE): 3500 to 4000 µg/mL (≈ 4100 to 4680 µM) | solubility ([7]; pH 7, aqueous with cosolvent or surfactant or cyclodextrin, thermodynamic from solid, concentrated polymers DP=100 containing between 15% and 20% vitamin E, read-out: concentrations of solubilized active ingredient): > 3 mM | solubility ([7]; pH 7, aqueous with cosolvent or surfactant or cyclodextrin, thermodynamic from solid, sodium polyglutamate DP=100, 10% VE, 52.8 mg/ml, pH 7.0, ambient temperature, read-out: Total concentration of solubilized active ingredient): 1.5 mM (≈ 1280 µg/mL) | solubility ([7]; pH 7, aqueous with cosolvent or surfactant or cyclodextrin, thermodynamic from solid, sodium polyglutamate DP=100, 15% VE, 84.6 mg/ml, pH 7.0, ambient temperature, read-out: Total concentration of solubilized active ingredient): 3.5 mM (≈ 2990 µg/mL) | solubility ([7]; pH 7, aqueous with cosolvent or surfactant or cyclodextrin, thermodynamic from solid, sodium polyglutamate DP=100, 20% VE, 156 mg/ml, pH 7.0, ambient temperature, read-out: Total concentration of solubilized active ingredient): 6.4 mM (≈ 5470 µg/mL) | solubility ([7]; pH 7, aqueous with cosolvent or surfactant or cyclodextrin, thermodynamic from solid, sodium polyglutamate DP=100, 30% VE, 53.5 mg/ml, pH 7.0, ambient temperature, read-out: Total concentration of solubilized active ingredient): < 1.4 mM | Solubilized active ingredient in μmol per g of polymer [7, 14]: 29 μmol per g of polymer | Solubilized active ingredient in μmol per g of polymer [7, 15]: 42 μmol per g of polymer | Solubilized active ingredient in μmol per g of polymer [7, 16]: 41 μmol per g of polymer | Solubilized active ingredient in μmol per g of polymer [7, 17]: <26 μmol per g of polymer | appearance after ultrasonic treatment (physchem [8]; 0.49 mg paclitaxel in 2 liter 0.05 M phosphate buffer pH 7.0, after stirring, ultrasonic bath 60 min at ambient temperature): A few grains of powder are still undissolved | appearance after magnetic stirring (physchem [8]; 0.49 mg paclitaxel in 2 liter 0.05 M phosphate buffer pH 7.0, magnetic stirring […] at 37° C.): a few grains of undissolved powder remain | solubility at […] (physchem [8]; solubility in an aqueous buffer): < 0.25 µg/mL and < 0.3 µM | solubility at […] (physchem [8]; solubility of the active ingredient measured without polymer): 0.0003 mM (≈ 0.256 µg/mL) | μmol of paclitaxel per gram of POM polymer ([9]; 20 mg/ml polyglutamate DP=100, 20% VE): 47 μmol per gram of POM polymer | solubility at […] ([9]; aqueous polyglutamate (POM) polymer solution, pH 7, aqueous with cosolvent or surfactant or cyclodextrin, thermodynamic from solid, 20 mg/ml polyglutamate DP=100, 20% VE): ~800 µg/mL (≈ 937 µM) | Solubilized active ingredient in μmol per g of polymer [9, 18]: 12 μmol per g of polymer | Total concentration of active ingredient solibilized for 20 g/l of polymer [9, 18]: 0.00023 mol/L | Solubilized active ingredient in μmol per g of polymer [9, 19]: 29 μmol per g of polymer | Total concentration of active ingredient solibilized for 20 g/l of polymer [9, 19]: 0.00059 mol/L | Solubilized active ingredient in μmol per g of polymer [9, 20]: 47 μmol per g of polymer | Total concentration of active ingredient solibilized for 20 g/l of polymer [9, 20]: 0.00094 mol/L | Solubilized active ingredient in μmol per g of polymer [9, 21]: 47 μmol per g of polymer | Total concentration of active ingredient solibilized for 20 g/l of polymer [9, 21]: 0.00094 mol/L | aqueous solubility [10]: less than 1 μg/ml
